Patent US7211572B2 (Japan Tobacco Inc., priority 2003, dated 2007)
Structures can show the parent of a compound that is named as a salt.

Each compound was assayed against T1, HIV integrase (Human immunodeficiency virus type 1 group M subtype B, UniProt P12497, F1332H) (assay: Determination of enzyme (HIV integrase) inhibitory activity). Settings: recombinant HIV integrase (F185H), strand transfer ELISA, absorbance at 450 nm.
T1 construct: HIV integrase full length gene; made in house; host or cells: Escherichia coli BL21(DE3), plasmid pET21a-INH
Type: biochemical
Source text: The following explains evaluation methods of the HIV integrase inhibitory activity of the compound of the present invention.
(i) Construction of Recombinant Integrase Gene Expression System
The 185th phenylalanine of HIV integrase full length gene (J. Virol., 67, 425–437 (1993)) was substituted by histidine and inserted into the restriction enzyme NdeI and XhoI sites of plasmid pET21a(+) (Novagen), whereby an integrase expression vector pET21a-INH was constructed.
(ii) Production and Purification of Integrase Protein
Escherichia coli recombinant BL21(DE3) transformed with plasmid pET21a-INH obtained in (i) was shake cultured at 37° C. in a liquid medium containing ampicillin. When the culture reached the logarithmic growth phase, isopropyl-β-D-thiogalactopyranoside was added to promote expression of integrase gene. The culture was continued for 3 hr to promote accumulation of the integrase protein. The recombinant E. coli was collected in pellets by centrifugal separation and preserved at −80° C.
The E. coli was suspended in Lysis buffer (20 mM HEPES (pH 7.5), 5 mM DTT, 10 mM CHAPS, 10% glycerol) containing 1M sodium chloride and subjected to repeat pressurization and depressurization for rupture, and centrifugal separation at 4° C., 40,000×g, 60 min to recover a water-soluble fraction (supernatant). This was diluted 10-fold with Lysis buffer free of sodium chloride, mixed with SP-Sepharose (Pharmacia Corporation) and stirred at 4° C. for 30 min to allow adsorption of integrase protein to the resin. The resin was washed with Lysis buffer containing 100 mM sodium chloride and the integrase protein was eluted with Lysis buffer containing 1M sodium chloride.
The eluted integrase protein solution was applied to a Superdex 75 (Pharmacia Corporation) column for gel filtration. The protein was eluted with Lysis buffer containing 1M sodium chloride.
The obtained fractions of the integrase protein were collected and preserved at −80° C.
(iii) Preparation of DNA Solution
The following DNA synthesized by Greiner was dissolved in TE buffer (10 mM Tris-hydrochloric acid (pH 8.0), 1 mM EDTA) and mixed with donor DNA, target DNA, and each complementary strand (+ and − strands) to 1 μM. The mixture was heated at 95° C. for 5 min, 80° C. for 10 min, 70° C. for 10 min, 60° C. for 10 min, 50° C. for 10 min and 40° C. for 10 min and preserved at 25° C. to give a double stranded DNA, which was used for the test.
Donor DNA (− strand having biotin attached to the 5′ terminal)
(iv) Determination of Enzyme (HIV Integrase) Inhibitory Activity
The donor DNA was diluted with TE buffer to 10 nM, of which 50 μl was added to each well of streptavidin-coated microtiter plate (Roche) and allowed to adsorb at 37° C. for 60 min. The DNA was washed with phosphate buffer (Dulbecco PBS, Sanko Junyaku Co., Ltd.) containing 0.1% Tween 20 and phosphate buffer. Then, a reaction mixture (70 μl) having the following composition, a test substance (10 μl) diluted with the reaction mixture and 100 μg/ml integrase protein (10 μl) were added to each well and reacted at 37° C. for 60 min.
Composition of the reaction mixture: 30 mM MOPS (3-morpholinopropanesulfonic acid), 5 mM magnesium chloride, 3 mM DTT (dithiothreitol), 0.1 mg/ml BSA (bovine serum albumin), 5% glycerol, 10% DMSO (dimethyl sulfoxide), 0.01% Tween 20.
Then, 50 nM target DNA (10 μl) was added, reacted at 37° C. for 10 min and washed with phosphate buffer containing 0.1% Tween 20 to stop the reaction.
Then, 100 mU/ml peroxidase labeled anti-digoxigenin antibody solution (Roche, 100 μl) was added, and the mixture was reacted at 30° C. for 60 min, followed by washing with phosphate buffer containing 0.1% Tween 20.
A peroxidase color solution (Bio Rad, 100 μl) was added and allowed to react at room temperature for 4 min. The color reaction was stopped by adding 1N sulfuric acid (100 μl). The absorbance at 450 nm was measured. […]

SMILES | IC50 [nM]
O=C1c2c(O)c(=O)ccn2CCN1Cc1ccc(Cl)c(Cl)c1 [Example 1, 2-(3,4-dichlorobenzyl)-9-hydroxy-3,4-dihydro-2H-pyrido[1,2-a]pyrazine-1,8-dione hydrochloride] | < 10
CC1Cn2ccc(=O)c(O)c2C(=O)N1Cc1ccc(Cl)c(Cl)c1 (centres unmarked) [Example 3, 2-(3,4-dichlorobenzyl)-9-hydroxy-3-methyl-3,4-dihydro-2H-pyrido[1,2-a]pyrazine-1,8-dione] | 10 to 100
CC1(C)CN(Cc2ccc(Cl)c(Cl)c2)C(=O)c2c(O)c(=O)ccn21 [Example 4, 2-(3,4-dichlorobenzyl)-9-hydroxy-4,4-dimethyl-3,4-dihydro-2H-pyrido[1,2-a]pyrazine-1,8-dione] | 10 to 100
O=C1c2c(O)c(=O)cc(CO)n2CCN1Cc1ccc(Cl)c(Cl)c1 [Example 5, 2-(3,4-dichlorobenzyl)-9-hydroxy-6-hydroxymethyl-3,4-dihydro-2H-pyrido[1,2-a]pyrazine-1,8-dione] | 10 to 100
O=C(O)c1cc(=O)c(O)c2n1CCN(Cc1ccc(Cl)c(Cl)c1)C2=O [Example 6, 2-(3,4-dichlorobenzyl)-9-hydroxy-1,8-dioxo-1,3,4,8-tetrahydro-2H-pyrido[1,2-a]pyrazine-6-carboxylic acid] | 10 to 100
CC(C)(C)C(=O)c1cc(=O)c(O)c2n1CCN(Cc1ccc(Cl)c(Cl)c1)C2=O [Example 7, 2-(3,4-dichlorobenzyl)-6-(2,2-dimethylpropionyl)-9-hydroxy-3,4-dihydro-2H-pyrido[1,2-a]pyrazine-1,8-dione] | < 10
O=c1ccn2ccn(Cc3ccc(Cl)c(Cl)c3)c(=O)c2c1O [Example 8, 2-(3,4-dichlorobenzyl)-9-hydroxy-2H-pyrido[1,2-a]pyrazine-1,8-dione] | < 10
Cc1cn2ccc(=O)c(O)c2c(=O)n1Cc1ccc(Cl)c(Cl)c1 [Example 9, 2-(3,4-dichlorobenzyl)-9-hydroxy-3-methyl-2H-pyrido[1,2-a]pyrazine-1,8-dione] | 10 to 100
CC(C)c1cn(Cc2cccc(Cl)c2)c(=O)c2c(O)c(=O)ccn12 [Example 10, 2-(3-chlorobenzyl)-9-hydroxy-4-isopropyl-2H-pyrido[1,2-a]pyrazine-1,8-dione hydrochloride] | 10 to 100
O=c1ccn2ccn(CCCc3c(Cl)cccc3Cl)c(=O)c2c1O [Example 11, 2-[3-(2,6-dichlorophenyl)propyl]-9-hydroxy-2H-pyrido[1,2-a]pyrazine-1,8-dione] | < 10
O=c1ncn2ccn(Cc3ccc(Cl)c(Cl)c3)c(=O)c2c1O [Example 12, 2-(3,4-dichlorobenzyl)-9-hydroxy-2H-pyrazino[1,2-a]pyrimidine-1,8-dione hydrochloride] | 10 to 100
CC1CN(Cc2ccc(Cl)c(Cl)c2)C(=O)c2c(O)c(=O)ccn21 (centres unmarked) [Example 13, 2-(3,4-dichlorobenzyl)-9-hydroxy-4-methyl-3,4-dihydro-2H-pyrido[1,2-a]pyrazine-1,8-dione] | 10 to 100
O=C1c2c(O)c(=O)ccn2C(Cc2ccccc2)CN1Cc1ccc(Cl)c(Cl)c1 (centres unmarked) [Example 14, 4-benzyl-2-(3,4-dichlorobenzyl)-9-hydroxy-3,4-dihydro-2H-pyrido[1,2-a]pyrazine-1,8-dione] | 10 to 100
O=C1c2c(O)c(=O)ccn2C(c2ccccc2)CN1Cc1ccc(Cl)c(Cl)c1 (centres unmarked) [Example 15, 2-(3,4-dichlorobenzyl)-9-hydroxy-4-phenyl-3,4-dihydro-2H-pyrido[1,2-a]pyrazine-1,8-dione] | 10 to 100
CCCCC1CN(Cc2ccc(Cl)c(Cl)c2)C(=O)c2c(O)c(=O)ccn21 (centres unmarked) [Example 16, 4-butyl-2-(3,4-dichlorobenzyl)-9-hydroxy-3,4-dihydro-2H-pyrido[1,2-a]pyrazine-1,8-dione] | 10 to 100
CC(C)C1CN(Cc2ccc(Cl)c(Cl)c2)C(=O)c2c(O)c(=O)ccn21 (centres unmarked) [Example 17, 2-(3,4-dichlorobenzyl)-9-hydroxy-4-isopropyl-3,4-dihydro-2H-pyrido[1,2-a]pyrazine-1,8-dione] | 10 to 100
CC1(C)Cn2ccc(=O)c(O)c2C(=O)N1Cc1ccc(Cl)c(Cl)c1 [Example 18, 2-(3,4-dichlorobenzyl)-9-hydroxy-3,3-dimethyl-3,4-dihydro-2H-pyrido[1,2-a]pyrazine-1,8-dione] | 10 to 100
O=C1c2c(O)c(=O)ccn2C2(CCCC2)CN1Cc1ccc(Cl)c(Cl)c1 [Example 19, 2-(3,4-dichlorobenzyl)-9-hydroxy-3,4-dihydro-2H-pyrido[1,2-a]pyrazine-4-spiro-1′-cyclopentane-1,8-dione] | 10 to 100
O=C1c2c(O)c(=O)ccn2C2(CCCCC2)CN1Cc1ccc(Cl)c(Cl)c1 [Example 20, 2-(3,4-dichlorobenzyl)-9-hydroxy-3,4-dihydro-2H-pyrido[1,2-a]pyrazine-4-spiro-1′-cyclohexane-1,8-dione] | 10 to 100
COC(=O)C1CN(Cc2ccc(Cl)c(Cl)c2)C(=O)c2c(O)c(=O)ccn21 (centres unmarked) [Example 21, methyl 2-(3,4-dichlorobenzyl)-9-hydroxy-1,8-dioxo-1,3,4,8-tetrahydro-2H-pyrido[1,2-a]pyrazine-4-carboxylate] | 10 to 100
O=C(O)C1CN(Cc2ccc(Cl)c(Cl)c2)C(=O)c2c(O)c(=O)ccn21 (centres unmarked) [Example 22, 2-(3,4-dichlorobenzyl)-9-hydroxy-1,8-dioxo-1,3,4,8-tetrahydro-2H-pyrido[1,2-a]pyrazine-4-carboxylic acid] | 10 to 100
COCc1cc(=O)c(O)c2n1CCN(Cc1ccc(Cl)c(Cl)c1)C2=O [Example 23, 2-(3,4-dichlorobenzyl)-9-hydroxy-6-methoxymethyl-3,4-dihydro-2H-pyrido[1,2-a]pyrazine-1,8-dione] | 10 to 100
CN(C)C(=O)c1cc(=O)c(O)c2n1CCN(Cc1ccc(Cl)c(Cl)c1)C2=O [Example 24, N,N-dimethyl-2-(3,4-dichlorobenzyl)-9-hydroxy-1,8-dioxo-1,3,4,8-tetrahydro-2H-pyrido[1,2-a]pyrazine-6-carboxamide] | 10 to 100
O=C1c2c(O)c(=O)ccn2CC(Cc2ccccc2)N1Cc1ccc(Cl)c(Cl)c1 (centres unmarked) [Example 25, 3-benzyl-2-(3,4-dichlorobenzyl)-9-hydroxy-3,4-dihydro-2H-pyrido[1,2-a]pyrazine-1,8-dione] | 10 to 100
CCCCC1Cn2ccc(=O)c(O)c2C(=O)N1Cc1ccc(Cl)c(Cl)c1 (centres unmarked) [Example 26, 3-butyl-2-(3,4-dichlorobenzyl)-9-hydroxy-3,4-dihydro-2H-pyrido[1,2-a]pyrazine-1,8-dione] | 10 to 100
CN(C)C(=O)C1CN(Cc2ccc(Cl)c(Cl)c2)C(=O)c2c(O)c(=O)ccn21 (centres unmarked) [Example 27, N,N-dimethyl-2-(3,4-dichlorobenzyl)-9-hydroxy-1,8-dioxo-1,3,4,8-tetrahydro-2H-pyrido[1,2-a]pyrazine-4-carboxamide] | 100 to 1000
O=C1c2c(O)c(=O)ccn2C(CO)CN1Cc1ccc(Cl)c(Cl)c1 (centres unmarked) [Example 28, 2-(3,4-dichlorobenzyl)-9-hydroxy-4-hydroxymethyl-3,4-dihydro-2H-pyrido[1,2-a]pyrazine-1,8-dione] | 10 to 100
COCC1CN(Cc2ccc(Cl)c(Cl)c2)C(=O)c2c(O)c(=O)ccn21 (centres unmarked) [Example 29, 2-(3,4-dichlorobenzyl)-9-hydroxy-4-methoxymethyl-3,4-dihydro-2H-pyrido[1,2-a]pyrazine-1,8-dione] | 10 to 100
CSCc1cc(=O)c(O)c2n1CCN(Cc1ccc(Cl)c(Cl)c1)C2=O [Example 30, 2-(3,4-dichlorobenzyl)-9-hydroxy-6-methylsulfanylmethyl-3,4-dihydro-2H-pyrido[1,2-a]pyrazine-1,8-dione] | 10 to 100
